Test results from US12509421B2, “Preparation and application of deuterated 4-phenyl-4-piperidinols” (priority 2022, dated 2025).
Counter-ions that a name gives are not always drawn. Like-named read-outs stand apart in the source and are kept apart here.

Experiments:
Female Kunming mice [1] = test: Hot plate analgesia test in mice; format: in vivo; settings: intraperitoneal, 55° C. hot plate; for ED50: Mus musculus, ip
Procedure: Female Kunming mice weighing about 20 g are placed on a hot plate instrument preheated to 55° C., and the latency of licking hind feet or lifting hind feet is used as the pain threshold index. Animals are screened before the experiment, and animals with latency less than 5 s or more than 30 s are excluded. To prevent foot burns, the longest observation time is set to 60s. The basic pain threshold is the average of two measurements, and the interval between the two measurements is 5 minutes. The pain threshold of mice in each group is determined at 15 minutes, 30 minutes, 60 minutes and 120 minutes after intraperitoneal administration. The effective percentage of analgesia (% MPE) is calculated according to the following formula
[formula] According to the effective percentage of analgesia, the ED50 value is calculated by graphpad prism 5.0 software.

[2] = Metabolic stability in liver microsomes, human; settings: for half-life at 2 μM / microsomal CLint at 2 μM: human, microsomes, pH 7.4
Procedure: The solution B is slowly dropped into solution A, and the pH is adjusted to 7.40±0.05.
• Control drug: 4 μL Verapamil solution (10 mM) is added with 96 μL DMSO and diluted to 400 μM; • Compound to be tested: 4 μL compound to be tested (10 mM) is added with 96 μL normal saline and diluted to 400 μM.
The microsomes are stored in the refrigerator at −80° C., thawed at room temperature after being taken out, and mixed gently.
[…] PBS (100 mm, pH=7.4) solution is added to the negative sample. The solution is put into water bath at 37° C. and pre-incubated for 10 minutes; • B) After incubation, 2 μL reference drug or compound to be tested (400 μM) are added into each well to start the reaction.

Female Kunming mice [3] = settings: as disclosed in patent CN201911076305.X; cited from earlier work
hERG potassium channel = hERG potassium channel (Homo sapiens, UniProt Q12809); test: hERG potassium channel whole-cell patch clamp (HEK293); format: cell-based; design: expressed in transfected cells; host or cells: HEK293 cell line; settings: for IC50: HEK293 cells stably expressing hERG, whole-cell patch clamp, room temperature, read-out: Half-inhibition concentration of compounds to be tested on hERG (IC50)
Sequence of hERG potassium channel (Q12809 whole entry, the tested form may be a part): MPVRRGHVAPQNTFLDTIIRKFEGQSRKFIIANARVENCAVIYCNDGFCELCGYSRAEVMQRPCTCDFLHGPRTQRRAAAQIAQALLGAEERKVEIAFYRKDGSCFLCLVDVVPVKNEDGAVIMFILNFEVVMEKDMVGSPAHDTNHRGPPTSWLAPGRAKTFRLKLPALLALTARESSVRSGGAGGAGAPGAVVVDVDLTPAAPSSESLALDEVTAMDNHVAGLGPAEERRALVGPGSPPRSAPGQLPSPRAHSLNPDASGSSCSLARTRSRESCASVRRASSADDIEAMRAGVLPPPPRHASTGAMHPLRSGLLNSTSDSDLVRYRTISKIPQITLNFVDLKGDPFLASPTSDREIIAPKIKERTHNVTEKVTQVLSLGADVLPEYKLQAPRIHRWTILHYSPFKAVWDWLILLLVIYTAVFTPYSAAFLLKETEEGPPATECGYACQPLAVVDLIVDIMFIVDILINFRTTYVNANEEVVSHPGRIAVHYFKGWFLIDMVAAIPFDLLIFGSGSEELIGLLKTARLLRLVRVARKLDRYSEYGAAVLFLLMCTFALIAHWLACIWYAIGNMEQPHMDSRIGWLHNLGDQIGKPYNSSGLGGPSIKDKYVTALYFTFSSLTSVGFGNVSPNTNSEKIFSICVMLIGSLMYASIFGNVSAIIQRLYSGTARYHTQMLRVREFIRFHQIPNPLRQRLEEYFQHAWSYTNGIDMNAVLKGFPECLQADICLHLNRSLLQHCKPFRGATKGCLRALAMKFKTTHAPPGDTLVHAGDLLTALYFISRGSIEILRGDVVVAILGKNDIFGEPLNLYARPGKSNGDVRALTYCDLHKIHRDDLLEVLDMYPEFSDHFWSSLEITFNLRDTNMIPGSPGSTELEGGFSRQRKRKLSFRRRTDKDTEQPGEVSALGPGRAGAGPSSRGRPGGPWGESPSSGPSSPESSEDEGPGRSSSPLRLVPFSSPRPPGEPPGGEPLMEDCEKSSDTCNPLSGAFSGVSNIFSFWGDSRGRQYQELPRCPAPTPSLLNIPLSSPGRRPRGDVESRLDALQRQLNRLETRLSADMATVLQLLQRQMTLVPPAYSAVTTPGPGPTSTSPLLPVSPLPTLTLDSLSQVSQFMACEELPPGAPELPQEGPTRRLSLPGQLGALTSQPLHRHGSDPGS
Summary of the method: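 Whole-cell patch clamp in HEK293 cells at room temperature: tail current elicited by −80 to 30 mV for 2.5 s, then −50 mV for 4 s, every 10 s. Ascending concentrations were gravity-perfused for 5 min each, with each cell's compound-free current as control. IC50 came from nonlinear fit of inhibition.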

CYP 1A2 = target: T1, CYP 1A2 (Homo sapiens, UniProt P05177); test: Inhibition of cytochrome P450 enzyme in human liver microsomes, CYP 1A2
T1 sequence (P05177 1-516): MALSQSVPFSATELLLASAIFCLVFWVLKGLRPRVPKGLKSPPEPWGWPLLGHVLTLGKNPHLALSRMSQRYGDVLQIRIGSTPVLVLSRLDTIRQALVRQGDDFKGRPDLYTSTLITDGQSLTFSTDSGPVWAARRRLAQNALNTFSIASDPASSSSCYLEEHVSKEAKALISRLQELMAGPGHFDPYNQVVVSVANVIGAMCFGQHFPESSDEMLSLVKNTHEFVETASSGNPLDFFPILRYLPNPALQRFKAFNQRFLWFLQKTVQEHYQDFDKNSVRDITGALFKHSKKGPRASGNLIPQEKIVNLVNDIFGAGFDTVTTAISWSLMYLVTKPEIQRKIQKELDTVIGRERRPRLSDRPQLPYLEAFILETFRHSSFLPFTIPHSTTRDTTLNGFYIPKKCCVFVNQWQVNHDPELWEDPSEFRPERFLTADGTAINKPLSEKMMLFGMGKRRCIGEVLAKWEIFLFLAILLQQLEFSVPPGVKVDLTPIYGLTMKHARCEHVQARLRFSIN

[4] = Human liver microsomes 0.5 mg/mL, NADPH 1 mM, compound 2 μM

COc1cccc([C@]2(O)CCN(S(=O)(=O)Cc3ccccc3)C[C@H]2CN(C)C)c1.Cl [Example 20 of CN201911076305.X, reference compound]
ED50, hot plate (Female Kunming mice [1]): 0.49 mg/kg
CLint [2, 4]: 950.42 μL/min/mg protein
t1/2 [2, 4]: 1.46 min
ED50 in mouse hot plate experiments (Female Kunming mice [3]): 0.49 mg/kg
hERG inhibition grade (hERG potassium channel; listed as Example 20 of patent CN201911076305.X, hydrochloride): moderate inhibitory effects on hERG
hERG inhibition grade (hERG potassium channel; listed as example 20 of the prior art CN201911076305.X, hydrochloride): μM(Moderate intensity inhibition)

[2H]C([2H])([2H])N(C)C[C@@H]1CN(S(=O)(=O)Cc2ccccc2)CC[C@@]1(O)c1cccc(OC)c1 [II-1hydrochloride]
ED50 (Female Kunming mice [1]): 0.52 mg/kg
half-life at 2 μM [2]: 5.22 min
microsomal CLint at 2 μM [2]: 663 µL/min/mg
IC50 (CYP 1A2): > 50 µM

[2H]C([2H])([2H])Oc1cccc([C@]2(O)CCN(S(=O)(=O)Cc3ccccc3)C[C@H]2CN(C([2H])([2H])[2H])C([2H])([2H])[2H])c1 [II-5hydrochloride]
ED50 (Female Kunming mice [1]): 0.58 mg/kg
half-life at 2 μM [2]: 6.25 min
microsomal CLint at 2 μM [2]: 704 µL/min/mg
hERG inhibition grade (hERG potassium channel): μM((Weak inhibition)
IC50 (hERG potassium channel): 23.9 µM
IC50 (CYP 1A2): > 50 µM

[2H]C([2H])([2H])N(C[C@@H]1CN(C(=O)Cc2cc(F)c(F)cc2F)CC[C@@]1(O)c1cccc(OC)c1)C([2H])([2H])[2H] [II-9hydrochloride]
ED50 (Female Kunming mice [1]): 0.52 mg/kg
half-life at 2 μM [2]: 5.32 min
microsomal CLint at 2 μM [2]: 673 µL/min/mg
hERG inhibition grade (hERG potassium channel): μM((Weak inhibition)
IC50 (hERG potassium channel): 20.5 µM
IC50 (CYP 1A2): > 50 µM

[2H]C([2H])([2H])N(C[C@@H]1CN(S(=O)(=O)Cc2ccccc2)CC[C@@]1(O)c1cccc(OC)c1)C([2H])([2H])[2H] [II-3hydrochloride]
ED50 (Female Kunming mice [1]): 0.5 mg/kg
half-life at 2 μM [2]: 5.46 min
microsomal CLint at 2 μM [2]: 685 µL/min/mg
hERG inhibition grade (hERG potassium channel): μM((Weak inhibition)
IC50 (hERG potassium channel): 14.7 µM
IC50 (CYP 1A2): > 50 µM

[2H]C([2H])([2H])Oc1cccc([C@]2(O)CCN(C(=O)Cc3cc(F)c(F)cc3F)C[C@H]2CN(C([2H])([2H])[2H])C([2H])([2H])[2H])c1 [II-11hydrochloride]
ED50 (Female Kunming mice [1]): 0.64 mg/kg
half-life at 2 μM [2]: 6.18 min
microsomal CLint at 2 μM [2]: 711 µL/min/mg
hERG inhibition grade (hERG potassium channel): μM((Weak inhibition)
IC50 (hERG potassium channel): 20.2 µM
IC50 (CYP 1A2): > 50 µM

[2H]C([2H])([2H])N(C)C[C@@H]1CN(C(=O)Cc2cc(F)c(F)cc2F)CC[C@@]1(O)c1cccc(OC)c1 [II-7hydrochloride, 1-((3R,4S)-4-hydroxy-4-(3-methoxyphenyl)-3-(((methyl-d3)amino)methyl)-1-piperidinyl)-2(2,4,5-trifluorophenyl)ethyl-1-one]
ED50 (Female Kunming mice [1]): 0.51 mg/kg
half-life at 2 μM [2]: 5.42 min
microsomal CLint at 2 μM [2]: 681 µL/min/mg
IC50 (CYP 1A2): > 50 µM
